# Reference: ChEMBL document CHEMBL6127012, “Discovery of DS-1093a: An oral hypoxia-inducible factor prolyl hydroxylase inhibitor for the treatment of renal anemia” (Bioorg Med Chem Lett, 2024)
# Key:
# cells = conditions: Homo sapiens, Hep3B
# Description: Induction of EPO production in human Hep3B cells
# Cynomolgus monkey = assay: Anti-leukemia activity in cynomolgus monkey assessed as dose required to cause 10 fold increase in plasma EPO level
# [1] = Partition coefficient, Kp of compound in rat liver to plasma; format: ADME, cell-free; conditions: liver and plasma
# [2] = Toxicity in rat assessed as increase in AST level […] at 100 mg/kg, po measured on day 4 (reference value: 71 IU/L); format: organism-based; conditions: in vivo, 96 h, time 4 day
# [3] = Cmax in rat at 3 mg/kg, po measured on day 4; format: ADME, organism-based; conditions: in vivo, time 4 day
# [4] = Half life in rat at 3 mg/kg, po measured on day 4; format: ADME, organism-based; conditions: in vivo, time 4 day
# [5] = AUC (0 to 24 hrs) in rat at 100 mg/kg, po measured on day 4; format: ADME, organism-based; conditions: in vivo, time 4 day
# [6] = Plasma protein binding in rat assessed as free fraction; format: ADME, cell-free
# [7] = AUC (0 to 24 hrs) in rat at 10 mg/kg, po measured on day 4; format: ADME, organism-based; conditions: in vivo, time 4 day
# [8] = Toxicity in rat assessed as increase in ALT level […] at 100 mg/kg, po measured on day 4 (reference value: 38 IU/L); format: organism-based; conditions: in vivo, 96 h, time 4 day
# [9] = Lipophilicity, logD of the compound; format: physicochemical; conditions: octanol/water
# [10] = Toxicity in rat assessed as increase in ALT level […] at 10 mg/kg, po measured on day 4 (reference value: 38 IU/L); format: organism-based; conditions: in vivo, 96 h, time 4 day
# [11] = AUC (0 to 24 hrs) in rat at 10 mg/kg, po measured for 14 days; format: ADME, organism-based; conditions: in vivo, time 14 day
# [12] = Toxicity in rat assessed as increase in AST level […] at 10 mg/kg, po measured on day 4 (reference value: 71 IU/L); format: organism-based; conditions: in vivo, 96 h, time 4 day
# Rattus norvegicus = assay: Hematopoietic effect on adenine-induced renal anemia po dosed rat model assessed as increase in hemoglobin level administered for 4 days and measured on day 5,7,9,11 and 14; format: functional, organism-based; conditions: dose 0.3-3 mg/kg, time 4.0 day
# [13] = Metabolic stability in rat plasma assessed as parent compound remaining; format: ADME, cell-free
# [14] = AUC (0 to 24 hrs) in rat at 0.54 mg/kg, po measured for 14 days; format: ADME, organism-based; conditions: in vivo, time 14 day
# [15] = Toxicity in rat assessed as NOAEL at 10 mg/kg, po measured for 14 days; format: organism-based; conditions: in vivo, 336 h, time 14 day
# [16] = AUC in rat at 3 mg/kg, po measured on day 4; format: ADME, organism-based; conditions: in vivo, time 4 day
# Egl nine homolog 1 = Egl nine homolog 1 (Homo sapiens, UniProt Q9GZT9)
# Chain of Egl nine homolog 1 (Q9GZT9 whole entry): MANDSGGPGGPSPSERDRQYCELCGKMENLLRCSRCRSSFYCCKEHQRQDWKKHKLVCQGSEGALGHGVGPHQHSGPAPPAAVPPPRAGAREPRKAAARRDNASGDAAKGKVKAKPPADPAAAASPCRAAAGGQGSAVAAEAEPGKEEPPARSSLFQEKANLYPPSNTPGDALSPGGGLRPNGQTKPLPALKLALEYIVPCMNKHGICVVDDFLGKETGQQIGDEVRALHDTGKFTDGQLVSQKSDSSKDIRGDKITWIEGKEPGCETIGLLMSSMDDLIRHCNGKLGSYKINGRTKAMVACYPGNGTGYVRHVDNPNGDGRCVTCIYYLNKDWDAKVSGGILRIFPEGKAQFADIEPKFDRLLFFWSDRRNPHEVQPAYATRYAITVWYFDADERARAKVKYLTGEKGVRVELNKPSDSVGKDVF
# Description: Inhibition of HIF-PHD2 (unknown origin)
EC50 (cells) [µM],SMILES,other results
0.47,Cc1nc(CC2CCN(c3ccc(-c4ccc(CO)cc4)cc3)CC2)nc(C(=O)NCC(=O)O)c1O,
0.49,Cc1nc(CC2CCN(c3ccc(-c4ccc(C[C@H](C)O)cc4)cc3)CC2)nc(C(=O)NCC(=O)O)c1O,Activity [2]: 97 IU/L; Cmax [3]: 860 ng/mL; half-life [4]: 1 h; AUC at 96 h [5]: 162000 ng·h/mL; Fu [6]: 0.73%; AUC at 96 h [7]: 16200 ng·h/mL; Activity [8]: 52 IU/L; EC10 (Cynomolgus monkey): 3.5 mg/kg; logD [9]: 1.2; Activity [10]: 40 IU/L; AUC at 336 h [11]: 88500 ng·h/mL; Activity [12]: 79 IU/L; Activity (Rattus norvegicus): Dose-Dependent Effect; Stability [13]: 79%; AUC at 336 h [14]: 600 ng·h/mL; Activity [15]: Non-Toxic; AUC at 96 h [16]: 4320 ng·h/mL
13,Cc1nc(CCC2CCN(c3ccc(C(C)(C)C)cc3)CC2)nc(C(=O)NCC(=O)O)c1O,
2.7,Cc1nc(CC2CCN(c3ccc(Cc4ccc(CO)cc4)cc3)CC2)nc(C(=O)NCC(=O)O)c1O,
2.1,Cc1nc(CC2CCN(c3ccc(Cc4ccc(CC(C)O)cc4)cc3)CC2)nc(C(=O)NCC(=O)O)c1O (stereo not given),
5.8,Cc1nc(CC2CCN(c3ccc(Cc4ccc(C(=O)N(C)C)cc4)cc3)CC2)nc(C(=O)NCC(=O)O)c1O,
11,Cc1nc(CCCCC2CCN(c3ccc(C(C)(C)C)cc3)CC2)nc(C(=O)NCC(=O)O)c1O,
11,Cc1nc(CCCC2CCN(c3ccc(C(C)(C)C)cc3)CC2)nc(C(=O)NCC(=O)O)c1O,
8.4,Cc1nc(Cc2ccc(-c3ccccc3)cc2)nc(C(=O)NCC(=O)O)c1O,EC10 (Cynomolgus monkey): 2.2 mg/kg
16,CCc1nc(Cc2ccc(-c3ccccc3)cc2)nc(C(=O)NCC(=O)O)c1O,
0.55,Cc1nc(CC2CCN(c3ccc(-c4ccc(CC(C)O)cc4)cc3)CC2)nc(C(=O)NCC(=O)O)c1O (racemic),Kp [1]: 1.5
0.84,Cc1nc(CC2CCN(c3ccc(-c4ccc(C(C)(C)CO)cc4)cc3)CC2)nc(C(=O)NCC(=O)O)c1O,
0.44,Cc1nc(CC2CCN(c3ccc(-c4ccc(C[C@@H](C)O)cc4)cc3)CC2)nc(C(=O)NCC(=O)O)c1O,Activity [2]: 103 IU/L; AUC at 96 h [5]: 197000 ng·h/mL; AUC at 96 h [7]: 15500 ng·h/mL; Activity [8]: 54 IU/L; EC10 (Cynomolgus monkey): 2.4 mg/kg; Activity [10]: 40 IU/L; Activity [12]: 77 IU/L
14,Cc1nc(Cc2ccc(-c3ccccc3)cc2)nc(C(=O)N[C@@H](C)C(=O)O)c1O,
3.2,Cc1nc(CC2CCN(c3ccc(Cc4ccc(C(C)(C)CO)cc4)cc3)CC2)nc(C(=O)NCC(=O)O)c1O,
27,Cc1nc(CC2CCN(c3ccc(C(C)(C)C)cc3)C2)nc(C(=O)NCC(=O)O)c1O (stereo not given),
19,Cc1nc(CC2CCCN(c3ccc(C(C)(C)C)cc3)CC2)nc(C(=O)NCC(=O)O)c1O (stereo not given),
,Cc1nc(Cc2ccc(-c3ccccc3)cc2)nc(C(=O)NCC(=O)O)c1C,IC50 (Egl nine homolog 1): > 100 µM
3.1,Cc1nc(Cc2cnc(-c3ccc(C(C)(C)C)cc3)s2)nc(C(=O)NCC(=O)O)c1O,
0.84,Cc1nc(CC2CCN(c3ccc(-c4ccc(C(=O)N(C)C)cc4)cc3)CC2)nc(C(=O)NCC(=O)O)c1O,

SMILES,EC50 (cells) [µM],other results
Cc1nc(Cc2ccc(-c3ccc(C(C)(C)C)cc3)cn2)nc(C(=O)NCC(=O)O)c1O,1.9,
CSc1nc(CC2CCN(c3ccc(C(C)(C)C)cc3)CC2)nc(C(=O)NCC(=O)O)c1O,3,
CCCCc1ccc(N2CCC(Cc3nc(C)c(O)c(C(=O)NCC(=O)O)n3)CC2)cc1,1.6,
Cc1nc(CC2CCN(c3ccc(Cc4ccccc4)cc3)CC2)nc(C(=O)NCC(=O)O)c1O,0.99,EC10 (Cynomolgus monkey): 0.5 mg/kg; Kp [1]: 9.6
Cc1ccc(N2CCC(Cc3nc(C)c(O)c(C(=O)NCC(=O)O)n3)CC2)cc1,10,
CC(C)(C)c1ccc(N2CCC(Cc3nc(C(=O)NCC(=O)O)c(O)c(C(F)F)n3)CC2)cc1,19,
Cc1nc(CC2CCN(c3ccc(C(F)(F)F)cc3)CC2)nc(C(=O)NCC(=O)O)c1O,5.5,
Cc1nc(Cc2ccc(-c3ccc(C(C)(C)C)cc3)nc2)nc(C(=O)NCC(=O)O)c1O,1,
Cc1nc(Cc2cnc(-c3ccc(C(C)(C)C)cc3)nc2)nc(C(=O)NCC(=O)O)c1O,1.9,
CCCc1ccc(N2CCC(Cc3nc(C)c(O)c(C(=O)NCC(=O)O)n3)CC2)cc1,1.6,
Cc1nc(CC2CCN(c3ccc(F)cc3)CC2)nc(C(=O)NCC(=O)O)c1O,9.9,
Cc1nc(CC2CCN(c3ccc(Cl)cc3)CC2)nc(C(=O)NCC(=O)O)c1O,6.9,
Cc1nc(CC2CCN(c3ccc(C(C)(C)C)cc3)CC2)nc(C(=O)NCC(=O)O)c1O,1.5,
Cc1nc(CC2CCN(c3cccc(Cc4ccccc4)c3)CC2)nc(C(=O)NCC(=O)O)c1O,3.9,
Cc1nc(CC2CCN(c3cccc(C(C)(C)C)c3)CC2)nc(C(=O)NCC(=O)O)c1O,6.3,
Cc1nc(CC2CCN(c3ccc(-c4ccccc4)cc3)CC2)nc(C(=O)NCC(=O)O)c1O,0.42,EC10 (Cynomolgus monkey): 1.1 mg/kg
